Assay results reported in paper PMC8620791, “Inhibitory Effects of Sulfonamide Derivatives on the β-Carbonic Anhydrase (MpaCA) from Malassezia pachydermatis, a Commensal, Pathogenic Fungus Present in Domestic Animals” (International Journal of Molecular Sciences, 2021).

Key:
[1] = biological target: T1, β-CA (MpaCA) from Malassezia pachydermatis (Malassezia pachydermatis, UniProt A0A0M8MPA4); experiment: biochemical; conditions: recombinant enzyme, stopped-flow CO2 hydration, mean from three assays, errors ±5–10%, 15 min preincubation
T1 sequence (A0A0M8MPA4 1-242): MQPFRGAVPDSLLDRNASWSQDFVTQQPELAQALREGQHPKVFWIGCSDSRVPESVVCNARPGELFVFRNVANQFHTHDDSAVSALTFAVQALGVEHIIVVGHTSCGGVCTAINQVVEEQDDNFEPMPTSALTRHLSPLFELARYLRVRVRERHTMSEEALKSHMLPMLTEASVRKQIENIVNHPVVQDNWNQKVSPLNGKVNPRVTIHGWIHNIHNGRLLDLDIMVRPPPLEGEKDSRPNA
Protocol: An applied photophysics stopped-flow instrument was used for assaying the CA-catalyzed CO2 hydration activity [49].
At least six measurements of the original 5–10% reaction were used to assess the initial velocity for each inhibitor. The uncatalyzed rates were identically determined and detracted from the total observed rates. Stock inhibitor solutions (10–100 mM) were prepared in distilled, deionized water, and dilutions up to 0.01 mM were performed with the buffer test. […] The inhibition constants, which represent the mean from at least three different determinations, were obtained by the non-linear least-squares methods using PRISM 6 and the Cheng–Prusoff equation, as reported earlier [50]. […] All salts/small molecules were of the highest purity available from Sigma-Aldrich (Milan, Italy).

MgCA = biological target: MgCA; design: method as in PMID 31963335; conditions: stopped-flow CO2 hydration; given for comparison; ref [26]; cited from earlier work
MreCA = biological target: MreCA; design: method as in PMID 31963335; conditions: stopped-flow CO2 hydration; given for comparison; ref [26]; cited from earlier work

Row | Compound | Ki [1] | Ki (MgCA) | Ki (MreCA)
1 | NC(N)=Nc1nc(CSCCC(N)=NS(N)(=O)=O)cs1 [FAM, Famotidine, reference compound] | 4910 nM |  | 
2 | Nc1ccc(S(N)(=O)=O)cc1F [compound 7] | 2480 nM | 110 nM | 4590 nM
3 | Nc1ccc(S(N)(=O)=O)cc1 [compound 2] |  | 240 nM | 4620 nM
4 | NS(=O)(=O)c1cccc(S(N)(=O)=O)c1 [compound 3] | 1500 nM | 150 nM | > 10000 nM
5 | CC1(C)O[C@@H]2[C@@H](CO[C@@]3(COS(N)(=O)=O)OC(C)(C)O[C@@H]23)O1 [TPM, Topiramate, reference compound] | 480 nM | 1460 nM | 3830 nM
6 | NS(=O)(=O)c1nnc(NS(=O)(=O)c2ccccc2)s1 [BZA, Benzolamide, reference compound] | 120 nM |  | 7150 nM
7 | Nc1nccc(Nc2ccc(S(N)(=O)=O)cc2)n1 [compound 19] | 590 nM | > 10000 nM | 7790 nM
8 | NS(=O)(=O)c1cc2c(cc1Cl)NCNS2(=O)=O [HCT, Hydrochlorothiazide, reference compound] | 260 nM |  | 8500 nM
9 | Nc1ccc(S(=O)(=O)Nc2ccc(S(N)(=O)=O)cc2)cc1 [compound 22] | 1370 nM | 90 nM | 3740 nM
10 | Nc1cc(C(F)(F)F)c(S(N)(=O)=O)cc1S(N)(=O)=O [compound 11] |  |  | 6760 nM
11 | Cc1ccc(S(N)(=O)=O)cc1 [compound 4] | 1090 nM |  | 
12 | NS(=O)(=O)c1cc(Cl)cc(Cl)c1O [compound 10] | 2010 nM | 540 nM | > 10000 nM
13 | NS(=O)(=O)c1ccc(C(=O)O)cc1 [compound 18] |  | 60 nM | > 10000 nM
14 | NS(=O)(=O)c1cc(Cl)c(Cl)c(S(N)(=O)=O)c1 [DCP, Dichlorophenamide, reference compound] |  | 340 nM | 3060 nM
15 | CCN1CCCC1CNC(=O)c1cc(S(N)(=O)=O)ccc1OC (stereo not drawn) [SLP, Sulpiride, reference compound] |  |  | 4850 nM
16 | NS(=O)(=O)c1ccc(CCO)cc1 [compound 17] |  | 60 nM | > 10000 nM
17 | Cc1ccc(-c2cc(C(F)(F)F)nn2-c2ccc(S(N)(=O)=O)cc2)cc1 [CLX, Celecoxib, reference compound] | 60 nM | > 10000 nM | 1400 nM
18 | Nc1cc(Cl)c(S(N)(=O)=O)cc1S(N)(=O)=O [compound 12] | 2740 nM |  | > 10000 nM
19 | Nc1cccc(S(N)(=O)=O)c1 [compound 1] | 1990 nM |  | 
20 | NS(=O)(=O)c1ccc(CCNS(=O)(=O)c2ccc([N+](=O)[O-])cc2CO)cc1 [compound 21] | 270 nM | 110 nM | 7400 nM

Row | Compound | Ki [1] | Ki (MgCA) | Ki (MreCA)
21 | Cc1onc(-c2ccccc2)c1-c1ccc(S(N)(=O)=O)cc1 [VLX, Valdecoxib, reference compound] | 630 nM |  | 770 nM
22 | Nc1ccc(S(=O)(=O)Nc2nnc(S(N)(=O)=O)s2)cc1 [compound 20] | 610 nM | 230 nM | 910 nM
23 | O=C1NS(=O)(=O)c2ccccc21 [SAC, Saccharin, reference compound] | 1030 nM |  | 
24 | NS(=O)(=O)Cc1noc2ccccc12 [ZNS, Zonisamide, reference compound] | 2420 nM |  | 
25 | NS(=O)(=O)c1ccc(O)cc1 [compound 15] | 610 nM | 230 nM | > 10000 nM
26 | CCN[C@H]1CN(CCCOC)S(=O)(=O)c2sc(S(N)(=O)=O)cc21 [BRZ, Brinzolamide, reference compound] | 550 nM | > 10000 nM | 700 nM
27 | Cn1nc(S(N)(=O)=O)sc1=N [compound 14] | 580 nM | > 10000 nM | > 10000 nM
28 | NCCc1ccc(S(N)(=O)=O)cc1 [compound 6] |  |  | > 10000 nM
29 | Nc1ccc(S(N)(=O)=O)cc1Br [compound 9] |  | 340 nM | > 10000 nM
30 | NS(=O)(=O)c1ccc(N2CCCCS2(=O)=O)cc1 [SLT, Sulthiame, reference compound] | 1880 nM |  | 670 nM
31 | Nc1ccc(S(=O)(=O)NCc2ccc(S(N)(=O)=O)cc2)cc1 [compound 23] | 260 nM | > 10000 nM | > 10000 nM
32 | Nc1nnc(S(N)(=O)=O)s1 [compound 13] | 1090 nM |  | 
33 | NS(=O)(=O)c1ccc(CO)cc1 [compound 16] | 1060 nM | 100 nM | 6510 nM
34 | NS(=O)(=O)NCCNc1nonc1C(=NO)Nc1ccc(F)c(Br)c1 [EPA, Epacadostat, reference compound] | 630 nM |  | 
35 | Nc1ccc(S(=O)(=O)NCCc2ccc(S(N)(=O)=O)cc2)cc1 [compound 24] | 1270 nM |  | 
36 | Nc1ccc(S(N)(=O)=O)cc1Cl [compound 8] | 1680 nM | 120 nM | > 10000 nM
37 | NCc1ccc(S(N)(=O)=O)cc1 [compound 5] | 2180 nM |  | > 10000 nM
38 | CC(=O)/N=c1/sc(S(N)(=O)=O)nn1C [MZA, Methazolamide, reference compound] | 1720 nM |  | 
39 | NS(=O)(=O)c1ccc(S(=O)(=O)Nc2cccc3c(Cl)c[nH]c23)cc1 [IND, Indisulam E7070, reference compound] | 4820 nM |  | < 1000 nM
